# Where “and” joins values, the source holds several entries; their conditions need not be identical. Equal values may be shown once.
# System: T-47D spheroids with HUVEC/MSC, viability
# Assay: Anticancer human tumor T-47D cell line growth inhibition [PI3K];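 note: spheroids exposed to agents for seven days before reading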;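 for viability, T/C: percent of DMSO vehicle control luminescence so 100% = untreated growth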
# Conditions: for viability, T/C: stronger effect = lower value
# Description: Combinatorial screen of targeted agents with the PI3K inhibitors inavolisib, alpelisib, duvelisib, and copanlisib in multi-cell type tumor spheroids
# A high-throughput screen of multi-cell type tumor spheroids was designed to identify active combinations of targeted small molecules and PI3K pathway inhibitors. Complex spheroids include a stromal component modeled by human endothelial cells (HUVEC) and fibroblasts modeled by human mesenchymal stem cells (MSCs). The concentration ranges selected for each drug and investigational agent were based upon clinically achievable concentrations if the clinical Cmax of the agent was known.
# Compounds. The drugs and investigational agents: inavolisib (NSC800729), alpelisib (NSC765974), duvelisib (NSC772469), copanlisib (NSC816437), ipatasertib (NSC767898), afuresertib (NSC778305), talazoparib (NSC767125), sapanisertib (NSC764658), selumetinib (NSC741078), tovorafenib (DAY101, NSC766906), vemurafenib (NSC761431), ravoxertinib (NSC781343), sotorasib (NSC818433), MRTX1133 (NSC 836407), abemaciclib (NSC 768073), palbociclib (NSC758247), venetoclax (NSC 766270), SY5609 (NSC837396), enzalutamide (NSC755605), and darolutamide (NSC825331), were obtained from the National Cancer Institute (NCI) Developmental Therapeutics Program Chemical Repository. The FDA-approved anticancer drug set is available from the NCI Developmental Therapeutics Program. […] The stock solutions were prepared in dimethyl sulfoxide (DMSO, Sigma-Aldrich, St. Louis, MO, cat. D2650) at 800-fold the tested concentration and stored at -70 degrees C prior to their use. All drugs and investigational agents were tested over a range starting from a high concentration at or near the clinical Cmax and decreasing in half-log increments. If the clinical Cmax for an agent had not been determined, the highest concentration tested was 10 microM.
# Cell Culture. All cells were maintained in an incubator at 37 degrees C and 5% CO2 with 95% humidity. The PDC lines were cultured according to standard operating procedures established by the NCI PDMR (https://pdmr.cancer.gov/sops/default.htm). All PDCs were thawed and cultured in Matrigel-coated flasks prepared with a working solution of 1X Ham's F-12 nutrient mix, without supplementation (Invitrogen, Waltham, MA, cat. 11765054), 100 U/mL penicillin-streptomycin (Invitrogen, cat. 15140122), and 2.5% Matrigel (Corning Inc., Corning, NY, cat. 354248) for the first three passages. The 354836-022-R-J1-PDC, 475296-252-R-J1-PDC, and 997726-040-R-J2-PDC lines were cultured in 6A media, which includes advanced DMEM/F-12 (Thermo Fisher Scientific, cat. 12634028), 10 mM HEPES (Thermo Fisher Scientific, cat. 15630080), 1X GlutaMAX supplement (Thermo Fisher Scientific, cat. 35050061), 0.1 mg/mL primocin (InvivoGen, San Diego, CA, cat. ant-pm-2), 10% defined fetal bovine serum, heat inactivated (HyClone Laboratories Inc., Logan, UT, cat. SH30070.03HI), 50% L-WRN conditioned media (ATCC, cat. CRL-3276), 1.25 mM N-Acetyl-L-cysteine (Sigma-Aldrich, cat. A9165), 10 mM nicotinamide (Sigma-Aldrich, cat. N0636), 1X B-27 supplement (Thermo Fisher Scientific, cat. 17504044), 1X N-2 supplement (Thermo Fisher Scientific, cat. 17502048), and 10 microM Y-27632 dihydrochloride (Tocris Bioscience, Bristol, United Kingdom, cat. 1254). The 624824-186-R-J2-PDC line was cultured in 6C/Colon 1B media, which includes all 6A media components plus 50 ng/mL human EGF recombinant protein (Thermo Fisher Scientific, cat. PHG0311). […]
# [1] = curve of first compound, second compound 0.0316 µM
# [2] = curve of first compound, second compound 0.1 µM
# [3] = curve of first compound, second compound 0.316 µM
# [4] = curve of first compound, second compound 1 µM
# [5] = second compound 0.0316 µM, first compound 0.0316 µM
# [6] = second compound 0.0316 µM, first compound 0.1 µM
# [7] = second compound 0.1 µM, first compound 0.0316 µM
# [8] = second compound 0.1 µM, first compound 0.1 µM
# [9] = second compound 0.316 µM, first compound 0.0316 µM
# [10] = second compound 0.316 µM, first compound 0.1 µM
# [11] = second compound 1 µM, first compound 0.0316 µM
# [12] = second compound 1 µM, first compound 0.1 µM
compound,measurement,setting,value
Cn1nccc1Nc1nccc(-c2ccn(C(CO)c3ccc(Cl)c(F)c3)c(=O)c2)n1 (stereo unspecified) + CC(Nc1ncnc2nc[nH]c12)c1cc2cccc(Cl)c2c(=O)n1-c1ccccc1,IC50,[1],> 10 µM
same,IC50,[2],> 10 µM
same,IC50,[3],> 10 µM
same,IC50,[4],> 10 µM
same,IC50,"curve of first compound, second compound 3.16 µM",> 10 µM
same,IC50,"curve of first compound, second compound 10 µM",> 10 µM
same,"viability, T/C",[5],114%
same,"viability, T/C",[6],91.8%
same,"viability, T/C","second compound 0.0316 µM, first compound 0.316 µM",116%
same,"viability, T/C","second compound 0.0316 µM, first compound 1 µM",103%
same,"viability, T/C","second compound 0.0316 µM, first compound 3.16 µM",115%
same,"viability, T/C","second compound 0.0316 µM, first compound 10 µM",90.4%
same,"viability, T/C",[7],109%
same,"viability, T/C",[8],99.9%
same,"viability, T/C","second compound 0.1 µM, first compound 0.316 µM",99.2%
same,"viability, T/C","second compound 0.1 µM, first compound 1 µM",85.5%
same,"viability, T/C","second compound 0.1 µM, first compound 3.16 µM",104%
same,"viability, T/C","second compound 0.1 µM, first compound 10 µM",81%
same,"viability, T/C",[9],80.2%
same,"viability, T/C",[10],96.7%
same,"viability, T/C","second compound 0.316 µM, first compound 0.316 µM",87.5%
same,"viability, T/C","second compound 0.316 µM, first compound 1 µM",88.8%
same,"viability, T/C","second compound 0.316 µM, first compound 3.16 µM",118%
same,"viability, T/C","second compound 0.316 µM, first compound 10 µM",83.5%
same,"viability, T/C",[11],88.4%
same,"viability, T/C",[12],108%
same,"viability, T/C","second compound 1 µM, first compound 0.316 µM",98.4%
same,"viability, T/C","second compound 1 µM, first compound 1 µM",113%
same,"viability, T/C","second compound 1 µM, first compound 3.16 µM",111%
same,"viability, T/C","second compound 1 µM, first compound 10 µM",84.2%
same,"viability, T/C","second compound 3.16 µM, first compound 0.0316 µM",101%
same,"viability, T/C","second compound 3.16 µM, first compound 0.1 µM",97.6%
same,"viability, T/C","second compound 3.16 µM, first compound 0.316 µM",97.6%
same,"viability, T/C","second compound 3.16 µM, first compound 1 µM",85.5%
same,"viability, T/C","second compound 3.16 µM, first compound 3.16 µM",108%
same,"viability, T/C","second compound 3.16 µM, first compound 10 µM",96.3%
same,"viability, T/C","second compound 10 µM, first compound 0.0316 µM",97.1%
same,"viability, T/C","second compound 10 µM, first compound 0.1 µM",84.1%
same,"viability, T/C","second compound 10 µM, first compound 0.316 µM",95.8%
same,"viability, T/C","second compound 10 µM, first compound 1 µM",94%
same,"viability, T/C","second compound 10 µM, first compound 3.16 µM",125%
same,"viability, T/C","second compound 10 µM, first compound 10 µM",73.9%
COc1c(OCCCN2CCOCC2)ccc2c3n(c(=NC(=O)c4cnc(N)nc4)nc12)CCN3,"viability, T/C",compound 0.01 µM,99.1% [middle of 8 runs]
same,"viability, T/C",compound 0.0316 µM,70.4% [middle of 8 runs]
same,"viability, T/C",compound 0.1 µM,45.4% [middle of 8 runs]
same,"viability, T/C",compound 0.316 µM,20.5% [middle of 8 runs]
same,"viability, T/C",compound 1 µM,7.09% [middle of 8 runs]
same,IC50,"compound alone, run of 04/25/2023",86.9 nM [middle of 8 runs]
C=CC(=O)N1CCN(c2nc(=O)n(-c3c(C)ccnc3C(C)C)c3nc(-c4c(O)cccc4F)c(F)cc23)C(C)C1 (stereo unspecified),"viability, T/C",compound 0.0316 µM,94.8% (2×) and 125% and 115%
same,"viability, T/C",compound 0.1 µM,96.8% [middle of 4 runs]
same,"viability, T/C",compound 1 µM,98.7% and 126% (2×) and 94.5%
same,IC50,curve of compound,> 10 µM
Cn1ncnc1[C@H]1c2n[nH]c(=O)c3cc(F)cc(c23)N[C@@H]1c1ccc(F)cc1 + CC(Nc1ccc2c(c1)OCCn1cc(N3C(=O)OCC3C(F)F)nc1-2)C(N)=O,IC50,"curve of first compound, second compound 0.00316 µM",> 0.1 µM
same,IC50,"curve of first compound, second compound 0.01 µM",> 0.1 µM
same,IC50,[1],> 0.1 µM
same,IC50,[2],> 0.1 µM
same,IC50,[3],> 0.1 µM
same,IC50,[4],> 0.1 µM
same,"viability, T/C","second compound 0.00316 µM, first compound 0.000316 µM",88.8%
same,"viability, T/C","second compound 0.00316 µM, first compound 0.001 µM",82.8%
same,"viability, T/C","second compound 0.00316 µM, first compound 0.00316 µM",109%
same,"viability, T/C","second compound 0.00316 µM, first compound 0.01 µM",86.9%
same,"viability, T/C","second compound 0.00316 µM, first compound 0.0316 µM",96.3%
same,"viability, T/C","second compound 0.00316 µM, first compound 0.1 µM",112%
same,"viability, T/C","second compound 0.01 µM, first compound 0.000316 µM",113%
same,"viability, T/C","second compound 0.01 µM, first compound 0.001 µM",78.7%
same,"viability, T/C","second compound 0.01 µM, first compound 0.00316 µM",80.3%
same,"viability, T/C","second compound 0.01 µM, first compound 0.01 µM",96.2%
same,"viability, T/C","second compound 0.01 µM, first compound 0.0316 µM",91.3%
same,"viability, T/C","second compound 0.01 µM, first compound 0.1 µM",89.4%
same,"viability, T/C","second compound 0.0316 µM, first compound 0.000316 µM",108%
same,"viability, T/C","second compound 0.0316 µM, first compound 0.001 µM",74.7%
same,"viability, T/C","second compound 0.0316 µM, first compound 0.00316 µM",88.8%
same,"viability, T/C","second compound 0.0316 µM, first compound 0.01 µM",85%
same,"viability, T/C",[5],81.2%
same,"viability, T/C",[6],75.8%
same,"viability, T/C","second compound 0.1 µM, first compound 0.000316 µM",79.2%
same,"viability, T/C","second compound 0.1 µM, first compound 0.001 µM",76.7%
same,"viability, T/C","second compound 0.1 µM, first compound 0.00316 µM",78.3%
same,"viability, T/C","second compound 0.1 µM, first compound 0.01 µM",81.6%
same,"viability, T/C",[7],86.5%
same,"viability, T/C",[8],76.2%
same,"viability, T/C","second compound 0.316 µM, first compound 0.000316 µM",77.1%
same,"viability, T/C","second compound 0.316 µM, first compound 0.001 µM",80.1%
same,"viability, T/C","second compound 0.316 µM, first compound 0.00316 µM",57.1%
same,"viability, T/C","second compound 0.316 µM, first compound 0.01 µM",65.6%
same,"viability, T/C",[9],62.3%
same,"viability, T/C",[10],61.9%
same,"viability, T/C","second compound 1 µM, first compound 0.000316 µM",61.5%
same,"viability, T/C","second compound 1 µM, first compound 0.001 µM",48.5%
same,"viability, T/C","second compound 1 µM, first compound 0.00316 µM",54.2%
same,"viability, T/C","second compound 1 µM, first compound 0.01 µM",58%
same,"viability, T/C",[11],55.2%
same,"viability, T/C",[12],49.8%
CC(C)NCC(C(=O)N1CCN(c2ncnc3c2C(C)CC3O)CC1)c1ccc(Cl)cc1 (stereo unspecified),"viability, T/C",compound 0.0316 µM,99.4% [middle of 4 runs]
same,"viability, T/C",compound 0.1 µM,83.5% [middle of 4 runs]
same,"viability, T/C",compound 0.316 µM,84.9% [middle of 4 runs]
same,"viability, T/C",compound 1 µM,79.4% [middle of 4 runs]
same,"viability, T/C",compound 3.16 µM,64.1% [middle of 4 runs]
same,"viability, T/C",compound 10 µM,52.3% [middle of 4 runs]
same,IC50,curve of compound,> 10 µM

# From PubChem BioAssay AID1963959 (Molecular Pharmacology Branch, DTP, NCI, 2024)
